Data reported in paper PMC10545790.
Values after ≈ are worked out from the molar mass of the structure shown. Values joined by “and” are separate entries in the source; they are usually repeats but may differ in a detail not shown here. Equal values may be shown once. “Also recorded” adds a separate entry of the source. Read-outs that look alike come from different tables or passages of the source.

Legend:
[1] = target: ABL1 kinase (Homo sapiens, UniProt P00519); details: for inhibitory effect on the catalytic activity of ABL1 kinase (in words): ADP-Glo Kinase Assay, 12 concentration points; for Luminescence, Raw Data (LUM): ADP-Glo
[2] = physchem; details: pH 7.4, logD (7.4): experimental distribution coefficient in n-octanol/phosphate-buffered saline
[3] = Metabolic stability in human liver microsomes; details: both, human, liver microsomes (pooled); for k el at 2 µM / microsomal CLint at 2 µM: pH 7.4; for remaining at 0.25 h, 2 µM: 15 min; for half-life at 2 µM: pH 7.4, t1/2: half-time of a metabolic decomposition, human liver microsomes, 2 μM compound, NADPH, 37 °C
[4] = tested on: human liver microsomes; assay: Metabolic stability in human liver microsomes; details: human liver microsomes; for t1/2: half-time of a metabolic decomposition: 2 μM compound, NADPH, 37 °C
[5] = Kinetic solubility in phosphate-buffered saline, pH 7.4; details: 25 °C, pH 7.4, aqueous buffer, kinetic from dmso stock
[6] = 1st run, plate ABL1_CpdsTitr_Read1, single wells, compound 15 nM
[7] = 1st run, plate ABL1_CpdsTitr_Read1, single wells, compound 29 nM
[8] = 1st run, plate ABL1_CpdsTitr_Read1, single wells, compound 59 nM
[9] = 1st run, plate ABL1_CpdsTitr_Read1, single wells, compound 117 nM
[10] = 1st run, plate ABL1_CpdsTitr_Read1, single wells, compound 234 nM
[11] = 1st run, plate ABL1_CpdsTitr_Read1, single wells, compound 469 nM
[12] = 1st run, plate ABL1_CpdsTitr_Read1, single wells, compound 938 nM
[13] = 1st run, plate ABL1_CpdsTitr_Read1, single wells, compound 1500 nM
[14] = 1st run, plate ABL1_CpdsTitr_Read1, single wells, compound 1875 nM
[15] = 1st run, plate ABL1_CpdsTitr_Read1, single wells, compound 3000 nM
[16] = 1st run, plate ABL1_CpdsTitr_Read1, single wells, compound 3750 nM
[17] = 1st run, plate ABL1_CpdsTitr_Read1, single wells, compound 7500 nM
[18] = 2nd run, plate ABL1_CpdsTitr2_Read1, single wells, compound 15 nM
[19] = 2nd run, plate ABL1_CpdsTitr2_Read1, single wells, compound 59 nM
[20] = 2nd run, plate ABL1_CpdsTitr2_Read1, single wells, compound 117 nM
[21] = 2nd run, plate ABL1_CpdsTitr2_Read1, single wells, compound 234 nM
[22] = 2nd run, plate ABL1_CpdsTitr2_Read1, single wells, compound 469 nM
[23] = 2nd run, plate ABL1_CpdsTitr2_Read1, single wells, compound 938 nM
[24] = 2nd run, plate ABL1_CpdsTitr2_Read1, single wells, compound 1500 nM
[25] = 2nd run, plate ABL1_CpdsTitr2_Read1, single wells, compound 1875 nM
[26] = 2nd run, plate ABL1_CpdsTitr2_Read1, single wells, compound 3000 nM
[27] = 2nd run, plate ABL1_CpdsTitr2_Read1, single wells, compound 3750 nM
[28] = 2nd run, plate ABL1_CpdsTitr2_Read1, single wells, compound 7500 nM
[29] = pH 7.4, % Remaining without cofactor, Mean of 2, human liver microsomes, NADPH-cofactor system substituted with phosphate buffer
[30] = pH 7.4, % Remaining, Mean of 2, human liver microsomes with NADPH

Sequence of ABL1 kinase (P00519 whole entry): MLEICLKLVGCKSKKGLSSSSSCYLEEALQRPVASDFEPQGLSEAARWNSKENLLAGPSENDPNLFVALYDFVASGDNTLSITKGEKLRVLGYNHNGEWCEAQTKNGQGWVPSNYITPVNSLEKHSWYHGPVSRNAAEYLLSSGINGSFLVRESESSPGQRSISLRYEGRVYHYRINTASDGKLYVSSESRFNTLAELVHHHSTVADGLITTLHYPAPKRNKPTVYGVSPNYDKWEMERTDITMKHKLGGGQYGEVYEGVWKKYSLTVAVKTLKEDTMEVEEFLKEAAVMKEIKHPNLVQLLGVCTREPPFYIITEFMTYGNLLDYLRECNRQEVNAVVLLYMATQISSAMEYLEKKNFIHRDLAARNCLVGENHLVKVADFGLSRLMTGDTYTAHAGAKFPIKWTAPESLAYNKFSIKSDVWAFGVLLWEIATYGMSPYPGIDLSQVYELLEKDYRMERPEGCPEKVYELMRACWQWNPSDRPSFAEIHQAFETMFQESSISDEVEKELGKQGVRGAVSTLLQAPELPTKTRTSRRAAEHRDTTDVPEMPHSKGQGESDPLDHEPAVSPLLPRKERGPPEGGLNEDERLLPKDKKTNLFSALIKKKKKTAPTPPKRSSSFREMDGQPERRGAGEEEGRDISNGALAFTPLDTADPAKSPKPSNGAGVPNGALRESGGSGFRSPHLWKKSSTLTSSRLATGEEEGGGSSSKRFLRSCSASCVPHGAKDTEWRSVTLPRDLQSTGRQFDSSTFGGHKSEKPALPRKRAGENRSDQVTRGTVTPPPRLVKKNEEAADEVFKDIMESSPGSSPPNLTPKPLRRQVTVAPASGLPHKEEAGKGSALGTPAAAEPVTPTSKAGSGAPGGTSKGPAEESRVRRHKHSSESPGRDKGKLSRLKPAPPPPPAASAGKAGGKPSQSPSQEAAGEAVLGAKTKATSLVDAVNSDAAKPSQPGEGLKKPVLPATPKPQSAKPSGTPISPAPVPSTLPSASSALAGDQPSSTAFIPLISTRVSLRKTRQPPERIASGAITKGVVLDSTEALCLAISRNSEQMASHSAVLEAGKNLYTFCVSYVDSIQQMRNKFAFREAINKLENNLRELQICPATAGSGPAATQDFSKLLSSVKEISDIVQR

| Structure (SMILES) | inhibitory effect on the catalytic activity of ABL1 kinase (in words) [1] | Luminescence, Raw Data (LUM) [1, 6] | Luminescence, Raw Data (LUM) [1, 7] | Luminescence, Raw Data (LUM) [1, 8] | Luminescence, Raw Data (LUM) [1, 9] | Luminescence, Raw Data (LUM) [1, 10] | Luminescence, Raw Data (LUM) [1, 11] | Luminescence, Raw Data (LUM) [1, 12] | Luminescence, Raw Data (LUM) [1, 13] | Luminescence, Raw Data (LUM) [1, 14] | Luminescence, Raw Data (LUM) [1, 15] | Luminescence, Raw Data (LUM) [1, 16] | Luminescence, Raw Data (LUM) [1, 17] | Luminescence, Raw Data (LUM) [1, 18] | Luminescence, Raw Data (LUM) [1, 19] | Luminescence, Raw Data (LUM) [1, 20] | Luminescence, Raw Data (LUM) [1, 21] | Luminescence, Raw Data (LUM) [1, 22] | Luminescence, Raw Data (LUM) [1, 23] | Luminescence, Raw Data (LUM) [1, 24] | also measured |
| --- | --- | --- | --- | --- | --- | --- | --- | --- | --- | --- | --- | --- | --- | --- | --- | --- | --- | --- | --- | --- | --- |
| Cc1ccc(NC(=O)C23CCC(CN4CCN(C)CC4)(CC2)OC3)cc1Nc1nccc(-c2cccnc2)n1 [Compound 85] | did not observe any significant inhibitory effect; also recorded: inactive | 1058 and 1113 and 1791 and 1922 | 1154 and 1300 and 1938 and 1968 | 1819 and 1993 and 1840 and 1873 | 2012 and 2091 and 2063 and 1940 | 1243 and 1296 and 1230 and 1333 | 1542 and 1412 and 1342 and 1622 | 1188 and 1448 and 1337 and 1335 | 1805 and 977 and 1232 and 1070 | 1156 and 1302 and 1289 and 1256 | 1327 and 1543 and 1534 and 1388 | 1381 and 1311 and 1134 | 1269 and 1270 and 1321 and 1071 | 6198 and 6465 and 5917 and 6372 | 6364 and 6701 and 5655 and 6486 | 6190 and 6555 and 5494 and 6585 | 5219 and 5282 and 5107 and 4913 | 6324 and 5692 and 5791 and 5812 | 6138 and 6238 and 6011 and 5496 | 5294 and 5538 and 5113 and 5062 | Luminescence, Raw Data (LUM) ([1]; 2nd run, plate ABL1_CpdsTitr2_Read1, single wells, compound 29 nM): 7090 and 6257 and 6692 and 6143; Luminescence, Raw Data (LUM) [1, 25]: 6881 and 6876 and 6366 and 6488; Luminescence, Raw Data (LUM) [1, 26]: 4805 and 5280 and 4474 and 4682; Luminescence, Raw Data (LUM) [1, 27]: 6509 and 5880 and 6068 and 5810; Luminescence, Raw Data (LUM) [1, 28]: 6480 and 6469 and 6139 and 5760; logD [2]: 1.8; k el at 2 µM [3]: 0.000133 s⁻¹; microsomal CLint at 2 µM [3]: 19 µL/min/mg; remaining at 40 min, 2 µM [3, 29]: 118%; remaining at 7 min, 2 µM [3, 30]: 101%; remaining at 0.25 h, 2 µM [3, 30]: 98%; remaining at 25 min, 2 µM [3, 30]: 90%; remaining at 40 min, 2 µM [3, 30]: 73%; half-life at 2 µM [3]: 1.45 h; CLint [4]: 19; t1/2: half-time of a metabolic decomposition [4]: 1.45 h; solubility kinetic at 2 h [5]: 389 µM (≈ 205 µg/mL) |
| Cc1ccc(NC(=O)C23CCC(CN4CCN(C)CC4)(CC2)CC3)cc1Nc1nccc(-c2cccnc2)n1 [Compound 86] | did not observe any significant inhibitory effect; also recorded: inactive | 2281 and 2169 | 2495 and 2464 | 2134 and 2384 | 2291 and 2227 | 1059 and 1099 | 1247 and 1531 | 1347 and 1294 | 981 and 1352 | 1222 and 1248 | 1174 and 1245 | 1755 and 1091 | 1238 and 1673 | 4011 and 3702 and 3072 and 2792 | 6124 and 5895 and 5335 and 5300 | 6960 and 7005 and 6427 and 6079 | 5660 and 5387 and 5152 and 5142 | 5734 and 5920 and 6125 and 5475 | 6593 and 6264 and 5955 and 5731 | 5936 and 5810 and 4992 and 5316 | Luminescence, Raw Data (LUM) [1, 25]: 6498 and 6064 and 6232 and 5788; Luminescence, Raw Data (LUM) [1, 26]: 4358 and 4452 and 3565 and 4254; Luminescence, Raw Data (LUM) [1, 27]: 5848 and 6030 and 5487 and 5693; Luminescence, Raw Data (LUM) [1, 28]: 5593 and 5845 and 6001 and 5417; logD [2]: 2.7; k el at 2 µM [3]: ~0.0001 s⁻¹; microsomal CLint at 2 µM [3]: 16 µL/min/mg; remaining at 40 min, 2 µM [3, 29]: 106%; remaining at 7 min, 2 µM [3, 30]: 100%; remaining at 0.25 h, 2 µM [3, 30]: 96%; remaining at 25 min, 2 µM [3, 30]: 81%; remaining at 40 min, 2 µM [3, 30]: 81%; half-life at 2 µM [3]: 1.78 h; CLint [4]: 16; t1/2: half-time of a metabolic decomposition [4]: ~1.785 h; solubility kinetic at 2 h [5]: 113 µM (≈ 59.4 µg/mL) |
